Measured values as given in patent US20200383985A1, “Inhibitors of Protease Activated Receptor-2” (Endosome Therapeutics, Inc., priority 2017, published 2020).
“And” between values parts separate entries of the source, which are not always exact repeats. Identical values can stand only once. “Also recorded” adds a separate entry of the source.

Columns and labels:
mice = test: Colonic compliance in awake mice; format: in vivo, mouse; settings: awake healthy mice
Description: Noxious colorectal distension (CRD) triggers the visceromotor response (VMR), a nociceptive brainstem reflex consisting of contraction of abdominal muscles, which can be monitored by electromyography. This approach allows assessment of visceral sensitivity in awake mice (Castro, J. et al., Br. J. Pharmacol. 2017, 175(12): 2384-2398). To examine protease-induced hy-persensitivity, a protease mixture (10 nM trypsin+100 nM NE+100 nM CS) or vehicle (saline) (100 μL) was instilled into the colon (enema) of healthy mice. After 15 min, the VMR was measured in response to graded CRD (20-80 mm Hg) with a barostat balloon. In vehicle-treated mice, CRD induced a graded VMR (FIG. 9I). […] Because alterations in the compliance of the colon can alter VMR to CRD, the pressure/volume relationship was measured at all distending pressures. Compliance of the colon was unaffected by the protease mixture or I-343 (FIGS. 21E and F). […]
Electromyography (EMG) of abdominal muscles was used to monitor VMR to CRD (Eichel, K. et al., Nat. Cell Biol. 2016, 18(3): 303-310). […] The EMG signal was recorded (NL100AK headstage), amplified (NL104), filtered (NL 125/126, Neurolog, Digitimer Ltd, bandpass 50-5000 Hz), and digitized (CED 1401, Cambridge Electronic Design) for off-line analysis using Spike2 (Cambridge Electronic Design). […]

PAR2 = molecular target: T1, PAR2 (Homo sapiens, UniProt P55085); test: IP1 accumulation assay in HT-29 cells (endogenous PAR2); format: cell-based; settings: 2F (300 nM)-induced IP1, HT-29 cells; read-out: HT-29 300 nM 2F pIC50 ± SEM (converted)
T1 construct: HT-29 cells and HEK293 cells, which express endogenous PAR2; endogenous in cells; host or cells: HT-29
T1 sequence (P55085 26-397): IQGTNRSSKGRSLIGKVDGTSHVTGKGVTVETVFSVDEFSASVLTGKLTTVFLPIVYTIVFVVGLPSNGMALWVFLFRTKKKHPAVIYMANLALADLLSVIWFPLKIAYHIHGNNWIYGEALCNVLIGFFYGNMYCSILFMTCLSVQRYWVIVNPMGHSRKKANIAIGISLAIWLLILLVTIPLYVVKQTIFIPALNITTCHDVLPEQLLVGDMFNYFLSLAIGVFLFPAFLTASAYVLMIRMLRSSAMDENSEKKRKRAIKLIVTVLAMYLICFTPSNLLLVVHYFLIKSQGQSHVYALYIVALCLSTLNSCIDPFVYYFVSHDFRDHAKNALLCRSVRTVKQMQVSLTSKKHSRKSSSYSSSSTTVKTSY
Summary of the method: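 KNRK-hPAR2 or HT-29 cells (50×10³/well, 24 h) in LiCl-containing stimulation buffer, pre-incubated with antagonist 30 min at 37 °C, then stimulated 40 min with 2F at 100 or 300 nM (EC80) or 10 μM ATP. IP1 in lysate quantified by HTRF; IC50 from concentration-response.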

KNRK cells = test: ATP-stimulated IP1 accumulation in KNRK cells; format: cell-based; settings: ATP (10 μM)
Description: KNRK-hPAR2, KNRK or HT-29 cells were seeded at a density of 50×10^3 cells/well in a clear poly-d-lysine coated 96 well tissue culture plate. Following 24 h incubation at 37° C. and 5% CO2, media was removed and replaced with 80 μl IP1 stimulation buffer (10 mM HEPES, 1 mM CaCl2, 0.5 mM MgCl2, 4.2 mM KCl, 146 mM NaCl, 5.5 mM glucose, 50 mM LiCl). Following stimulation buffer addition, the wells received 10 μl of 10× antagonists or DMSO vehicle. All plates were further incubated at 37° C., 5% CO2 for 30 min. 10 μl of 2F or ATP was added to the plates and further incubated for 40 min. Following incubation, stimulation buffer was quickly removed by aspiration and replaced with 25 μl lysis buffer (IP-One HTRF® assay kit, Cisbio). Following incubation of the lysates at 37° C., 5% CO2 for 10′, 10 μl lysate was transferred to a 384-well OptiPlate (PerkinElmer) and detected using the IP-One HTRF® assay kit (Cisbio).
Compounds of the invention (added at 10×concentrations in a 10 μL volume) were incubated for 30 min prior to the addition of 10 μM ATP or 100 nM or 300 nM PAR2 agonist (2F; EC80, added at 10×concentrations in a 10 μL volume) and then further incubated for 40 min. After lysis, the inositol phosphate 1 was quantified with IP-One HTRF® assay kit, Cisbio. The data was analysed with Prism, GraphPad to calculate the IC50 values, shown below in Table 1. […]

`Cc1nc(C(=O)N2CCN(C(=O)c3cn4nc(-c5ccc(F)cc5)cc(C(C)(C)C)c4n3)C(C)(C)C2)n[nH]1` [Compound I-343, (8-(tert-butyl)-6-(4-fluorophenyl)imidazo[1,2-b]pyridazin-2-yl)(2,2-dimethyl-4-(5-methyl-1H-1,2,4-triazole-3-carbonyl)piperazin-1-yl)methanone] was tested, and the “compliance of the colon (pressure/volume relationship)” value (mice) was “unaffected; also recorded: unchanged”, the IC50 (PAR2) was 1.17 nM and 1.1 nM and the “ATP-stimulated IP1” value (KNRK cells) was “did not affect”.
